# Results from ChEMBL document CHEMBL5537130, “Structure-based design of potent FABP4 inhibitors with high selectivity against FABP3” (Eur J Med Chem, 2024).
# What was measured:
# [1] = target: Fatty acid-binding protein, heart (Homo sapiens, UniProt P05413)
# Description: Displacement of 1,8-ANS from N-terminal 6His-tagged full length FABP3 (unknown origin) expressed in Escherichia coli ER2566 assessed as inhibition constant preincubated with compound for 10 mins followed by 1,8-ANS addition and measured after 3 mins by fluorescence based analysis
# FABP3 versus FABP4 = assay: in vitro; details: probe 1,8-ANS
# Description: Selectivity index, ratio of Ki for displacement of 1,8-ANS from N-terminal 6His-tagged full length FABP3 (unknown origin) expressed in Escherichia coli ER2566 to Ki for displacement of 1,8-ANS from N-terminal 6His-tagged full length FABP4 (unknown origin) expressed in Escherichia coli ER2566
# [2] = target: Fatty acid-binding protein, adipocyte (Homo sapiens, UniProt P15090)
# Description: Displacement of 1,8-ANS from N-terminal 6His-tagged full length FABP4 (unknown origin) expressed in Escherichia coli ER2566 assessed as inhibition constant preincubated with compound for 10 mins followed by 1,8-ANS addition and measured after 3 mins by fluorescence based analysis
# in vitro [3] = details: mouse, liver microsomes
# Description: Metabolic stability in mouse liver microsomes assessed as half life at 1 uM preincubated with compound for 10 mins followed by NADPH addition and measured upto 60 mins by LC-MS/MS analysis
# in vitro [4] = details: human, liver microsomes
# Description: Metabolic stability in human liver microsomes assessed as half life at 1 uM preincubated with compound for 10 mins followed by NADPH addition and measured upto 60 mins by LC-MS/MS analysis
# in vitro [5] = details: human, liver microsomes; remark: listed apart in the source
# Description: Metabolic stability in human liver microsomes assessed as metabolic bioavailability at 1 uM preincubated with compound for 10 mins followed by NADPH addition and measured upto 60 mins by LC-MS/MS analysis
# in vitro [6] = details: mouse, liver microsomes; remark: listed apart in the source
# Description: Metabolic stability in mouse liver microsomes assessed as metabolic bioavailability at 1 uM preincubated with compound for 10 mins followed by NADPH addition and measured upto 60 mins by LC-MS/MS analysis
# Sequence of Fatty acid-binding protein, heart (P05413 whole entry): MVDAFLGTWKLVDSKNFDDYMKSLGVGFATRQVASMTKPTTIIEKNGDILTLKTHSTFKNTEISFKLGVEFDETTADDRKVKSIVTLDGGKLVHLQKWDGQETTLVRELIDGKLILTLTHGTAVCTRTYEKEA
# Sequence of Fatty acid-binding protein, adipocyte (P15090 whole entry): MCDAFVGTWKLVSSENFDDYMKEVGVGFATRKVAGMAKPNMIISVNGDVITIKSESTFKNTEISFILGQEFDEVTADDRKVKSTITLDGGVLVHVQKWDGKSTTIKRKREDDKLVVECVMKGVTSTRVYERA
Ki [1] [µM],SMILES,other results
> 5,COc1cccc(Nc2cccc(Cl)c2-c2ccccc2)c1C(=O)O,–
15,Cc1cccc(Nc2cccc(Cl)c2-c2ccccc2)c1C(=O)O,–
7.51,Cc1c(F)ccc(Nc2cccc(Cl)c2-c2ccc3c(c2)CCO3)c1C(=O)O,–
15.4,Cc1cccc(Nc2cccc(Cl)c2-c2ccc3c(c2)CCO3)c1C(=O)O,–
4,Cc1c(F)ccc(Nc2cccc(Cl)c2-c2ccccc2)c1C(=O)O,–
5.18,O=C(O)c1c(Cl)cccc1Nc1cccc(Cl)c1-c1ccccc1,–

# Further lines, the compound ahead of its results:
SMILES,Ki [1] [µM],other results
COc1ccc(Nc2cccc(Cl)c2-c2ccccc2)c(C(=O)O)c1,2.19,selectivity ratio (FABP3 versus FABP4): 6; Ki [2]: 0.359 µM
O=C(O)c1cc(Cl)ccc1Nc1cccc(Cl)c1-c1ccccc1,1.29,–
O=C(O)c1cc(F)ccc1Nc1cccc(Cl)c1-c1ccccc1,0.37,–
O=C(O)c1ccccc1Nc1cccc(Cl)c1-c1ccccc1,–,"half-life at 1 h, 1 µM (in vitro [3]): 31.4 min; half-life at 1 h, 1 µM (in vitro [4]): 33.5 min; Fh at 1 h, 1 µM (in vitro [5]): 24%; Fh at 1 h, 1 µM (in vitro [6]): 39.9%"
Cc1ccc(Nc2cccc(Cl)c2-c2ccccc2)c(C(=O)O)c1,7.46,–
